This is an account of results in patent publication US20100120858A1, “Piperidine Derivatives” (Pfizer Inc., priority 2006, published 2010).

SMILES strings stand for the structures. Counter-ions that a name gives are not always drawn. A value given as a limit tells only on which side of the number the result lay.

Series [1] concerns the target human serotonin transporter (Homo sapiens, UniProt P31645). Briefly: Human serotonin (hSERT) receptor binding, [125I]-RTI-55. The note with it: membranes of HEK-293 cells transfected with human serotonin transporter cDNA, IC50 converted by Cheng-Prusoff. As for the experimental part: Cell pastes of HEK-293 cells transfected with a human serotonin transporter cDNA were prepared. The cell pastes were resuspended in 400 to 700 ml of Krebs-HEPES assay buffer (25 mM HEPES, 122 mM NaCl, 3 mM KCl, 1.2 mM MgSO4, 1.3 mM CaCl2, and 11 mM glucose, pH 7.4) with a Polytron homogenizer at Setting 7 for 30 seconds. Aliquots of membranes (˜2.5 mg/mL protein) were stored in liquid nitrogen until used.
Assays were set up in FlashPlates pre-coated with 0.1% polyethyleneimine (PEI) in a total volume of 250 μL containing: test compound (concentration 10^−5M to 10^−12M), cell membranes, and […] [^125I]-RTI-55 (Perkin Elmer, NEX-272; specific activity 2200 Ci/mmol). The reaction was incubated and gently agitated for 90 minutes at room temperature, and terminated by removal of assay volume. Plates were covered, and bound [^125I]-RTI-55 was determined using a Wallac Trilux Beta Plate Counter. Test compounds were run in duplicate, and specific binding was defined as the difference between binding in the presence and absence of 10 μM citalopram.
Excel and GraphPad Prism software were used for data calculation and analysis. IC50 values were converted to Ki values using the Cheng-Prusoff equation.

The target of series [2] is human norepinephrine transporter (Homo sapiens, UniProt P23975). Briefly: Human norepinephrine (hNET) receptor binding, [125I]-RTI-55. The note with it: membranes of HEK-293 cells transfected with human norepinephrine transporter cDNA; 50 pM [125I]-RTI-55; IC50 converted by Cheng-Prusoff. As for the experimental part: Cell pastes of human embryonic kidney 293 (HEK-293) cells transfected with a human norepinephrine transporter cDNA were prepared. The cell pastes were resuspended in 400 to 700 mL of Krebs-N-2-hydroxyethylpiperazine-N′-2-ethanesulfonic acid (HEPES) assay buffer (25 mM HEPES, 122 mM NaCl, 3 mM KCl, 1.2 mM MgSO4, 1.3 mM CaCl2, and 11 mM glucose, pH 7.4) with a Polytron homogenizer at setting 7 for 30 seconds. Aliquots of membranes (5 mg/mL protein) were stored in liquid nitrogen until used.
Chain of human norepinephrine transporter (P23975 whole entry): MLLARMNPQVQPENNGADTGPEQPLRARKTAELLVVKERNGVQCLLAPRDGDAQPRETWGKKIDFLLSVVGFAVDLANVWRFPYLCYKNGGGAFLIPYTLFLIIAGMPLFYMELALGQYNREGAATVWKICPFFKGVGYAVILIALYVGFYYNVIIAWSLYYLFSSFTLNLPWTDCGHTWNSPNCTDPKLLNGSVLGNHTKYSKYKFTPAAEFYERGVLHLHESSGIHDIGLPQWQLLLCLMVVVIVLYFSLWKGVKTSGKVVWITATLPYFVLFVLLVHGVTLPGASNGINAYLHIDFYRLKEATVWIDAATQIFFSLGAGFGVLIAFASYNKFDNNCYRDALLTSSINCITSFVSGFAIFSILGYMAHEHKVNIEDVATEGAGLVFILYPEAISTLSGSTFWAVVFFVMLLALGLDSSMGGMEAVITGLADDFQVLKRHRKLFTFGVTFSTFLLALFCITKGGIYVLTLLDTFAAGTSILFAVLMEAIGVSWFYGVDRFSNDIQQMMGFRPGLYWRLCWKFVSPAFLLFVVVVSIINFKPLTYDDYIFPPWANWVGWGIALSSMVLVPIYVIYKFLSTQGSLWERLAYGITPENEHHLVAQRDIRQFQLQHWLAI
The binding assay was set up in Beckman deep-well polypropylene plates with a total volume of 250 μL containing: test compound (concentration of 10^−5M to 10^−12M), cell membranes, and 50 pM [^125I]-RTI-55 ([^125I]-3 beta-(4-iodophenyl)tropan-2 beta-carboxylic acid methyl ester) (Perkin Elmer, NEX-272; specific activity 2200 Ci/mmol). The reaction was incubated by gentle agitation for 90 minutes at room temperature and was terminated by filtration through Whatman GF/C filter plates using a Brandel 96-well plate harvester. Scintillation fluid (100 μL) was added to each well, and bound [^125I]-RTI-55 was determined using a Wallac Trilux Beta Plate Counter. Test compounds were run in duplicate, and specific binding was defined as the difference between binding in the presence and absence of 10 μM desipramine.
Excel and GraphPad Prism software were used for data calculation and analysis. IC50 values were converted to Ki values using the Cheng-Prusoff equation. The Ki values (nM) for the hNET are reported below in Table 13.

Chain of human serotonin transporter (P31645 whole entry): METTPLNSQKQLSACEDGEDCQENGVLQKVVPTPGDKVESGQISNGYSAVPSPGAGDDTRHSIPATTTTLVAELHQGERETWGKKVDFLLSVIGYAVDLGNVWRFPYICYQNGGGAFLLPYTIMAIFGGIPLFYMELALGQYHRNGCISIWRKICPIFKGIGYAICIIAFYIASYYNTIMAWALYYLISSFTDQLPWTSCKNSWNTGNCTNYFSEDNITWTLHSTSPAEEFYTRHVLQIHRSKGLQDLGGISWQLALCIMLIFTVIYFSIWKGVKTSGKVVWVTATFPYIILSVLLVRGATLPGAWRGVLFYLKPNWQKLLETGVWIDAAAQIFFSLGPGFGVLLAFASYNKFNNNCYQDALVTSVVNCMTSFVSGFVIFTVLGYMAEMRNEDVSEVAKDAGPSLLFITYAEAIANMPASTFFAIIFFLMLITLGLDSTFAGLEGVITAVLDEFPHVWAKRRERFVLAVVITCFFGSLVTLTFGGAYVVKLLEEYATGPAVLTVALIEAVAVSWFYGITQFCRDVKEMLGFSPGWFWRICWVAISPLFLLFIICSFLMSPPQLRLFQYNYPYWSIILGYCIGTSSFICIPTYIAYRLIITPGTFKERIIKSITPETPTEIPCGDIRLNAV

Regarding `CCOc1ccccc1OC(c1ccccc1)[C@H]1CCCNC1` (mixture of isomers) (as salt: fumaric acid salt) (hydrate or solvate) [Example 106, (S)-3-[(2-ethoxy-phenoxy)-(R,S)-phenyl-methyl]-piperidine fumaric acid], the melting point is 82 to 88 °C (dec.).
In the case of `FC(F)(F)Oc1ccccc1O[C@@H](c1ccccn1)[C@H]1CCCNC1` [Example 116, 2-[(S)-piperidin-3-yl-{(R)-2-trifluoromethoxy-phenoxy}-methyl]-pyridine fumaric acid], the Ki in series [1] turned out to be 3700 nM; in series [2], 3 nM.
The matching figures for `CC(C)CCOc1ccccc1O[C@@H](C)[C@H]1CCCNC1` [Example 112, (S)-3-{(S)-1-[2-(3-methyl-butoxy)-phenoxy]-ethyl}-piperidine oxalic acid]: 790 nM and 16 nM.
As for `Cc1ccc(OC[C@H]2CCCNC2)c(Oc2cccc(C(F)(F)F)c2)n1` [Example 27, (S)-6-methyl-2-(3-trifluoromethy-phenoxy)-3-(piperidin-3-ylmethoxy)-pyridine fumaric acid], the inhibitory constant (Ki) in series [1] stood at 560 nM; in series [2], 310 nM.
The matching figures for `COc1ccc(OC[C@H]2CCCNC2)c(Oc2ccc(Cl)cc2OC)c1` [Example 32, (S)-3-[2-(4-chloro-2-methoxy-phenoxy)-4-methoxy-phenoxymethyl]-piperidine fumaric acid]: 120 nM and 46 nM.
The matching figures for `COc1cc(Cl)ccc1Oc1cc(Cl)ccc1OC[C@H]1CCCNC1` [Example 34, (S)-3-[4-chloro-2-(4-chloro-2-methoxy-phenoxy)-phenoxymethyl]-piperidine fumaric acid]: 21 nM and 16 nM.
In the same order, the values of `Cc1ccc(Oc2ncccc2OC[C@H]2CCCNC2)cc1` [Example 52, (S)-2-(4-methyl-phenoxy)-3-(piperidin-3-ylmethoxy)-pyridine fumaric acid] are 5200 nM and 4 nM.
Take `CC(C)Oc1ncccc1OC[C@H]1CCCNC1` [Example 80, (S)-2-isopropoxy-3-(piperidin-3-ylmethoxy)-pyridine fumaric acid]: the inhibition constant (Ki) was above 10000 nM in series [1] and 102 nM in series [2].
Regarding `CC[C@H](Oc1cccnc1OCC(C)C)[C@H]1CCCNC1` [Example 87, (S,S)-2-isobutoxy-3-(1-piperidin-3-yl-propoxy)-pyridine fumaric acid], the Ki was found to be 350 nM in series [1] and 7 nM in series [2].
In the same order, the values of `c1cnc(OC2CCCCC2)c(OC[C@H]2CCCNC2)c1` [Example 81, (S)-2-cyclohexyloxy-3-(piperidin-3-ylmethoxy)-pyridine fumaric acid] are 6130 nM and 84 nM.
The matching figures for `COc1ccc(F)cc1O[C@@H](c1ccccn1)[C@H]1CCCNC1` [Example 117, 2-[{(R)-5-fluoro-2-methoxy-phenoxy}-(S)-piperidin-3-yl-methyl]-pyridine fumaric acid]: 4600 nM and 16 nM.
Take `Cc1ccc(OC[C@H]2CCCNC2)c(Oc2cccc(Cl)c2)n1` [Example 15, (S)-2-(3-chloro-phenoxy)-6-methyl-3-(piperidin-3-ylmethoxy)-pyridine fumaric acid]: the figures for the Ki in series [1] and in series [2] were 287 nM and 9.8 nM, respectively.
The matching figures for `CCOc1ccccc1O[C@@H](c1ccccn1)[C@H]1CCCNC1` [Example 114, 2-[{(R)-2-ethoxy-phenoxy}-(S)-piperidin-3-yl-methyl]-pyridine fumaric acid]: 3700 nM and 7 nM.
As for `c1ccc(Oc2ncccc2OC[C@H]2CCCNC2)cc1` [Example 93, (S)-2-phenoxy-3-(piperidin-3-ylmethoxy)-pyridine fumaric acid], the inhibition constant Ki amounted to 7500 nM in series [1] and 5 nM in series [2].
Consider `Cc1ccc(OC[C@H]2CCCNC2)c(Oc2c(F)ccc(Cl)c2F)n1` [Example 50, (S)-2-(3-chloro-2,6-difluoro-phenoxy)-6-methyl-3-(piperidin-3-ylmethoxy)-pyridine hydrochloride], for which the inhibition constant Ki in series [1] turned out to be 60.3 nM; in series [2], 5.5 nM.
Regarding `Cc1ccc(OC[C@H]2CCCNC2)c(Oc2ccc3c(c2)CCC3)n1` [Example 18, (S)-2-(2,3-dihydro-1H-inden-5-yloxy)-6-methyl-3-(piperidin-3-ylmethoxy)pyridine fumaric acid], the Ki in series [1] stood at 620 nM; in series [2], 54 nM.
The matching figures for `Fc1ccc(Oc2c(F)cccc2OC[C@H]2CCCNC2)cc1` [Example 98, (S)-3-[3-fluoro-2-(4-fluoro-phenoxy)-phenoxymethyl]-piperidine trifluoroacetic acid]: 1300 nM and 1 nM.
In the same order, the values of `C[C@H](Oc1ccccc1OCC1CCC1)[C@H]1CCCNC1` [Example 110, (S)-3-[(S)-1-(2-cyclobutylmethoxy-phenoxy)-ethyl]-piperidine oxalic acid] are 420 nM and 3 nM.
The matching figures for `COc1cccc(Oc2nc(C)ccc2OC[C@H]2CCCNC2)c1OC` [Example 9, (S)-2-(2,3-dimethoxy-phenoxy)-6-methyl-3-(piperidin-3-ylmethoxy)-pyridine fumaric acid]: at least 10000 nM and 3200 nM.
As to `N#Cc1ccc(Oc2ncccc2OC[C@H]2CCCNC2)cc1F` [Example 61, (S)-2-fluoro-4-[3-(piperidin-3-ylmethoxy)-pyridin-2-yloxy]-benzonitrile fumaric acid], the Ki in series [1] was above 10000 nM; in series [2], 140 nM.
With `Cc1ccc(OC[C@H]2CCCNC2)c(Oc2c(Cl)cccc2Cl)n1` [Example 47, (S)-2-(2,6-dichloro-phenoxy)-6-methyl-3-(piperidin-3-ylmethoxy)-pyridine hydrochloride], the Ki in series [1] was above 9200 nM; in series [2] it was 10.4 nM.
The matching figures for `Fc1cc(Cl)ccc1Oc1cc(Cl)ccc1OC[C@H]1CCCNC1` [Example 33, (S)-3-[4-chloro-2-(4-chloro-2-fluoro-phenoxy)-phenoxymethyl]-piperidine fumaric acid]: 36 nM and 32 nM.
The matching figures for `Cc1ccc(OC[C@H]2CCCNC2)c(Oc2ccc(Cl)cc2)n1` [Example 13, (S)-2-(4-chloro-phenoxy)-6-methyl-3-(piperidin-3-ylmethoxy)-pyridine fumaric acid]: 140 nM and 8.9 nM.
In the same order, the values of `CCOc1ccccc1O[C@@H](C)[C@H]1CCCNC1` [Example 107, (S)-3-[(S)-1-(2-ethoxy-phenoxy)-ethyl]-piperidine] are 2700 nM and 7 nM.
With `Fc1ccc(Oc2cccc(F)c2OC[C@H]2CCCNC2)cc1` [Example 96, (S)-3-[2-fluoro-6-(4-fluoro-phenoxy)-phenoxymethyl]-piperidine fumaric acid], the inhibition constant (Ki) in series [1] turned out to be 530 nM; in series [2], 1 nM.
With `Clc1ccc(Oc2ncccc2OC[C@H]2CCCNC2)cc1` [Example 55, (S)-2-(4-chloro-phenoxy)-3-(piperidin-3-ylmethoxy)-pyridine fumaric acid], the values for the inhibition constant Ki in series [1] and in series [2] were above 10000 nM and 17 nM, respectively.
The matching figures for `Fc1ccc(Oc2ncccc2OC[C@H]2CCCNC2)c(F)c1` [Example 54, (S)-2-(2,4-difluoro-phenoxy)-3-(piperidin-3-ylmethoxy)-pyridine fumaric acid]: 2700 nM and 3 nM.
In the same order, the values of `COc1ccc(Oc2nc(C)ccc2OC[C@H]2CCCNC2)c(F)c1` [Example 30, (S)-2-(2-fluoro-4-methoxy-phenoxy)-6-methyl-3-(piperidin-3-ylmethoxy)-pyridine fumaric acid] are 230 nM and 15 nM.
